Test results as given in publication PMC9069370, “Integrated Design of a Membrane‐Lytic Peptide‐Based Intravenous Nanotherapeutic Suppresses Triple‐Negative Breast Cancer” (Advanced Science, 2022).
Peptide text beside a SMILES is read from it.

Key:
HMLER‐shEcad = experiment: cells; assay type: cell-based, human; conditions: 72 h
Source text: (§1) […], and MCF-10A cells were maintained in MEGM with supplements and growth factors bovine pituitary extract, hydrocortisone, human epidermal growth factor, insulin, and gentamicin/amphotericin-B.

MCF‐10A = experiment: cells; assay type: cell-based, human; conditions: 72 h
Source text: as §1

HMLER = experiment: cells; assay type: cell-based, human; conditions: 72 h
Source text: as §1

[1] = ANTS/DPX liposome leakage assay; conditions: 0.5 mM vesicles, peptide 0-20 µM, 3 h incubation, lipid per peptide; for Peptide Concentration-induced 50 % ANTS/DPX leakage at pH 4.8 (L/P), 3POPC/1POPG Vesicle / Peptide Concentration-induced 50 % ANTS/DPX leakage at pH 4.8 (L/P), POPC Vesicle: HCl-adjusted PBS 1X pH 4.8; for Peptide Concentration-induced 50 % ANTS/DPX leakage at pH 7.4 (L/P), 3POPC/1POPG Vesicle / Peptide Concentration-induced 50 % ANTS/DPX leakage at pH 7.4 (L/P), POPC Vesicle: PBS 1X pH 7.4, high ratio = more potent
Protocol: Vesicle preparation: 5 mM ANTS and 12.5 mM DPX were entrapped in 0.1 µm diameter extruded vesicles (either POPC or POPC/POPG at a ratio of 3:1) with lipids. Gel filtration chromatography of Sephadex G‐100 was used to remove external free ANTS/DPX from LUVs with entrapped contents. LUVs were diluted to 0.5 mM and used to measure the leakage activity by the addition of aliquots of ACPs. Leakage was measured after 3 h incubation. 10% Triton was used as the positive control to measure the maximum leakage of the vesicle. Fluorescence emission spectra were recorded using excitation and emission wavelength of 350 and 510 nm for ANTS/DPX using a BioTek Synergy H1 Hybrid Multi‐Mode Reader.
Peptide Concentration-induced Peptide Concentration-induced
Name Sequence† 50 % ANTS/DPX leakage 50 % ANTS/DPX leakage at pH 7.4 (L/P) at pH 4.8 (L/P)
POPC Vesicle 3POPC/1POPG Vesicle POPC Vesicle 3POPC/1POPG Vesicle […]
Extended Data Table 4 | Peptide concentration-induced 50 % ANTS/DPX liposome leakage. 0.5 mM POPC and 3POPC/1POPG vesicles were fixed and incubated with titrated peptide concentration (0, 0.02, […]
hydrochloric acid-adjusted phoshate buffered saline (1X, pH 4.8). The values are shown as lipid per

[2] = Tryptophan fluorescent binding assay; conditions: tryptophan fluorescence; 50 µM peptide, lipid titrated 0-5000 µM; phosphate buffered saline 1X, pH 7.4; values as lipid per peptide
Protocol: 50 µM ACP peptides and varied concentrations (concentrations: 0, 25, 50, 100, 150, 200, 250, 500, 1250, and 2500 µM) of POPC or POPC:POPG (3:1 ratio) large unilamellar vesicles were prepared in 10 mM phosphate buffer (pH 7.0). The solutions were measured after 1 h of incubation. Excitation was fixed at 280 nm (slit 9 nm) and emission was collected from 300 to 450 nm (slit 9 nm). The spectra were recorded using Cytation 5 Cell Imaging Multi‐Mode Reader from BioTek and were averaged by three scans.
Lipid Concentration-induced
Name Sequence† 50% Peptide Binding (L/P)
Extended Data Table 3 | Tryptophan binding assay. […]
peptide binding onto liposome. 50 µM peptides were fixed and incubated with titrated lipid (POPC vesicle […]
phosphate buffered saline (1X, pH 7.4). The lipid concentration that causes 50 % peptide binding was determined using tryptophan fluorescent binding assay and the values are shown as lipid per peptide.

HEK293T = experiment: cells; assay type: cell-based, human; conditions: 72 h
U2OS = assay type: cell-based, human; conditions: 72 h

| Structure (SMILES) | IC50 (HMLER‐shEcad) [µM] | IC50 (MCF‐10A) [µM] | IC50 (HMLER) [µM] | Peptide Concentration-induced 50 % ANTS/DPX leakage at pH 4.8 (L/P), 3POPC/1POPG Vesicle [1] [L/P] | Peptide Concentration-induced 50 % ANTS/DPX leakage at pH 4.8 (L/P), POPC Vesicle [1] [L/P] | Peptide Concentration-induced 50 % ANTS/DPX leakage at pH 7.4 (L/P), 3POPC/1POPG Vesicle [1] [L/P] | Peptide Concentration-induced 50 % ANTS/DPX leakage at pH 7.4 (L/P), POPC Vesicle [1] [L/P] | Lipid Concentration-induced 50% Peptide Binding (L/P), 3POPC/1POPG Vesicle [2] [L/P] | Lipid Concentration-induced 50% Peptide Binding (L/P), POPC Vesicle [2] [L/P] | IC50 (HEK293T) [µM] | IC50 (U2OS) [µM] |
| --- | --- | --- | --- | --- | --- | --- | --- | --- | --- | --- | --- |
| CC(C)C[C@H](NC(=O)CN)C(=O)N[C@@H](CC(C)C)C(=O)N[C@@H](CCCCN)C(=O)N[C@@H](CC(C)C)C(=O)N[C@@H](CC(C)C)C(=O)N[C@@H](CCC(=O)O)C(=O)N[C@@H](CC(C)C)C(=O)N[C@@H](CC(C)C)C(=O)N[C@@H](CC(C)C)C(=O)N[C@@H](Cc1c[nH]cn1)C(=O)N[C@@H](C)C(=O)N[C@@H](C)C(=O)NCC(=O)N[C@@H](Cc1c[nH]c2ccccc12)C(N)=O [KEH] (H-GLLKLLELLLHAAGW-NH2) | 2.35 ± 0.07 | 20 | 3.3 ± 0.42 | 68 | 188 | 286 | 995 | 0.50 | 1.00 | 5.65 ± 0.07 | 49.2 ± 5.3 |
| CC(C)C[C@H](NC(=O)CN)C(=O)N[C@@H](CC(C)C)C(=O)N[C@@H](CCC(=O)O)C(=O)N[C@@H](CC(C)C)C(=O)N[C@@H](CC(C)C)C(=O)N[C@@H](CCCCN)C(=O)N[C@@H](CC(C)C)C(=O)N[C@@H](CC(C)C)C(=O)N[C@@H](CC(C)C)C(=O)N[C@@H](CCCCN)C(=O)N[C@@H](C)C(=O)N[C@@H](C)C(=O)NCC(=O)N[C@@H](Cc1c[nH]c2ccccc12)C(N)=O [EKK] (H-GLLELLKLLLKAAGW-NH2) | 1.19 ± 0.4 | 1.7 ± 0.11 | 1.72 ± 0.21 | 219 | 60 | 235 | 1095 | 0.63 | 1.50 | 3.35 ± 0.49 | 12.2 ± 1.84 |
| CC(C)C[C@H](NC(=O)CN)C(=O)N[C@@H](CC(C)C)C(=O)N[C@@H](CCC(=O)O)C(=O)N[C@@H](CC(C)C)C(=O)N[C@@H](CC(C)C)C(=O)N[C@@H](Cc1c[nH]cn1)C(=O)N[C@@H](CC(C)C)C(=O)N[C@@H](CC(C)C)C(=O)N[C@@H](CC(C)C)C(=O)N[C@@H](CCCCN)C(=O)N[C@@H](C)C(=O)N[C@@H](C)C(=O)NCC(=O)N[C@@H](Cc1c[nH]c2ccccc12)C(N)=O [EHK] (H-GLLELLHLLLKAAGW-NH2) | 0.71 ± 0.13 | 3.6 ± 0.99 | 1.35 ± 0.35 | 117 | 55 | 505 | 981 | 0.42 | 0.56 | 5.35 ± 0.07 | 25 |
| CC(C)C[C@H](NC(=O)CN)C(=O)N[C@@H](CC(C)C)C(=O)N[C@@H](CCCCN)C(=O)N[C@@H](CC(C)C)C(=O)N[C@@H](CC(C)C)C(=O)N[C@@H](CCCCN)C(=O)N[C@@H](CC(C)C)C(=O)N[C@@H](CC(C)C)C(=O)N[C@@H](CC(C)C)C(=O)N[C@@H](Cc1c[nH]cn1)C(=O)N[C@@H](C)C(=O)N[C@@H](C)C(=O)NCC(=O)N[C@@H](Cc1c[nH]c2ccccc12)C(N)=O [KKH] (H-GLLKLLKLLLHAAGW-NH2) | 2.2 ± 0.42 | 1.75 ± 0.35 | 2.4 ± 0.85 | 49 | 164 | 227 | 2119 | 0.48 | 0.83 | 4 ± 0.28 | 13.3 ± 0.99 |
